Paper PMC6458995, “MAP4K4 Inhibition Promotes Survival of Human Stem Cell-Derived Cardiomyocytes and Reduces Infarct Size In Vivo” (Cell Stem Cell, 2019)

Assays:
Test in all cases: Dundee kinase panel
Format in all cases: biochemical
Settings in all cases: for remaining activity at 1 µM: read-out: residual activity
IKKb = target: T1, IKKb (Homo sapiens, UniProt O14920)
T1 construct: lines 1-140) and Reaction Biology
T1 sequence (O14920 1-756): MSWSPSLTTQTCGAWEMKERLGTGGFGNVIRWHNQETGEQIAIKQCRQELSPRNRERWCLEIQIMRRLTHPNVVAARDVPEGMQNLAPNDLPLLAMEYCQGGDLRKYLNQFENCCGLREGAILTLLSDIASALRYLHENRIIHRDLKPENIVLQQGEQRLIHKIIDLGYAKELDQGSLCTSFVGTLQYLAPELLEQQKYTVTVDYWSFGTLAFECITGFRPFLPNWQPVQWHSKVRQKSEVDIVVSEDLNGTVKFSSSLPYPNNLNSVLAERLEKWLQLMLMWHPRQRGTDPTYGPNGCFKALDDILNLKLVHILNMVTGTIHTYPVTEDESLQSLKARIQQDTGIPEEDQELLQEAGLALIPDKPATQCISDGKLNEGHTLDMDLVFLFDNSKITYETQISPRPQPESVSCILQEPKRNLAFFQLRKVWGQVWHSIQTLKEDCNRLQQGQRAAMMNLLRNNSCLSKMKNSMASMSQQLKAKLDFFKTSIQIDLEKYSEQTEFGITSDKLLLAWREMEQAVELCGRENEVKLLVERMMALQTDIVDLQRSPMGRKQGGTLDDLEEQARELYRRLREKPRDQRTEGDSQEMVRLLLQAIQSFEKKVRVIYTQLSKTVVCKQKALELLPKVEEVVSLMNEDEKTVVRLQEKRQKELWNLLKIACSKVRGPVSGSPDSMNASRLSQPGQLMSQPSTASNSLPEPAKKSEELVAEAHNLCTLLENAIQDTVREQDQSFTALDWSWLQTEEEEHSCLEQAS
Experimental: (§1) Compounds were screened at 1 μM. For key hits, pIC50 values were then determined by HTRF as above. […] Stability in mouse and human liver microsomes was determined by Cyprotex.

ASK1 = target: T2, ASK1 (Homo sapiens, UniProt Q99683)
T2 construct: lines 1-140) and Reaction Biology
T2 sequence (Q99683 1-1374): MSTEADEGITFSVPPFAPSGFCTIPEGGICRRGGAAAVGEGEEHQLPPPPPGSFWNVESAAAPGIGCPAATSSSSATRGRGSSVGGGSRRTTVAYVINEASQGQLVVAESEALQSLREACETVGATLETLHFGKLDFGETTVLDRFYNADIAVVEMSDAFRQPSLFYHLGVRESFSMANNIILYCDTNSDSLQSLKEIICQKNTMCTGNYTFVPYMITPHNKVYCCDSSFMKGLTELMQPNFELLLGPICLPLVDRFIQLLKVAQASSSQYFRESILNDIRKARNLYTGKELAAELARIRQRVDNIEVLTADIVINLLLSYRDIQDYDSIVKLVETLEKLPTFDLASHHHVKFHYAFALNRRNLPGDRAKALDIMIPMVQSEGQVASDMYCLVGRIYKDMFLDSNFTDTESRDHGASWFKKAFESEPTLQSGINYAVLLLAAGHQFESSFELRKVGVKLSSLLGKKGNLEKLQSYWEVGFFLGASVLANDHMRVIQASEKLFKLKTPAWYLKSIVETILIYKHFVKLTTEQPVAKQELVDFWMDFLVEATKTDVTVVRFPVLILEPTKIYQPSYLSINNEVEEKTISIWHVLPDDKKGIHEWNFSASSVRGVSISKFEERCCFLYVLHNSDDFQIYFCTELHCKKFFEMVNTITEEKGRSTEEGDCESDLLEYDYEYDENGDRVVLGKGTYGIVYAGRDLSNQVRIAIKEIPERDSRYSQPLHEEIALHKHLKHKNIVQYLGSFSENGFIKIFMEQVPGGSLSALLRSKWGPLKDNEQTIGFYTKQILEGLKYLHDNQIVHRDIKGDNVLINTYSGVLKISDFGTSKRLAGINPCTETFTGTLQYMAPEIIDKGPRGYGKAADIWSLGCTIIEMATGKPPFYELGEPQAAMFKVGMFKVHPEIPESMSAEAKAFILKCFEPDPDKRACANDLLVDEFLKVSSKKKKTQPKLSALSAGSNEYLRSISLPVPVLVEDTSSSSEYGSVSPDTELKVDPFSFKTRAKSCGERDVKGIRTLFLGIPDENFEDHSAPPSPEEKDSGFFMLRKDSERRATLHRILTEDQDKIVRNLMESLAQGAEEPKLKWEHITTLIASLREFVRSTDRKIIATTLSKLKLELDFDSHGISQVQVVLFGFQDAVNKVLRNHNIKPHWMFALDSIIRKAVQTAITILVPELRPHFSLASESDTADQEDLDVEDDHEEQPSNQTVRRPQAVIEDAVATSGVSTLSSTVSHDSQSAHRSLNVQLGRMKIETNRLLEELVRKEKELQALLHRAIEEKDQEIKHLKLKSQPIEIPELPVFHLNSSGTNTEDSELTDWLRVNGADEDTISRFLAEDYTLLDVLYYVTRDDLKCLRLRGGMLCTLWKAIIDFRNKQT
Experimental: as §1

PRK2 = target: T3, PRK2 (Homo sapiens, UniProt Q16513)
T3 construct: lines 1-140) and Reaction Biology
Experimental: as §1

ABL = target: T4, ABL (Homo sapiens, UniProt P00519)
T4 construct: lines 1-140) and Reaction Biology
Experimental: as §1

TLK1 = target: T5, TLK1 (Homo sapiens, UniProt Q9UKI8)
T5 construct: lines 1-140) and Reaction Biology
T5 sequence (Q9UKI8 1-766): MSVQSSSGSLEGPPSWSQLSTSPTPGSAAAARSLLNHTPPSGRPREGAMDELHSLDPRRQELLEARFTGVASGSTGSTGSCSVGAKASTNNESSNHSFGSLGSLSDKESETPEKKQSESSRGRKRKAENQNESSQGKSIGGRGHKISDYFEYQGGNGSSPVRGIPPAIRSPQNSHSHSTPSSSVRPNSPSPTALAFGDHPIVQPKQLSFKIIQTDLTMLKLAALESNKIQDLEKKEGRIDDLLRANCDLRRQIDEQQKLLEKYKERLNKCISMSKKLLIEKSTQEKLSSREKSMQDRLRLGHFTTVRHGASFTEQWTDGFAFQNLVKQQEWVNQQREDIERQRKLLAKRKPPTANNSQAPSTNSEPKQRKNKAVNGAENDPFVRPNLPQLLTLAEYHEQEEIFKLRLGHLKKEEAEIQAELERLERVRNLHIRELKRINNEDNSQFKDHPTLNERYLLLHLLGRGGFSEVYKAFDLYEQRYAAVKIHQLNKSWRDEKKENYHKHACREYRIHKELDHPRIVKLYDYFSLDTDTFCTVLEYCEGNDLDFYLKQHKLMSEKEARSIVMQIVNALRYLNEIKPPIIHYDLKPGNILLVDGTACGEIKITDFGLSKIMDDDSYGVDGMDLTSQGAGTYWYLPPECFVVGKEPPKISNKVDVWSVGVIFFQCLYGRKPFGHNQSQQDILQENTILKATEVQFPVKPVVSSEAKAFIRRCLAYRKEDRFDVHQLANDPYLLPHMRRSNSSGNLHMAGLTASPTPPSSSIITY
Experimental: as §1

T3 sequence (Q16513 whole entry): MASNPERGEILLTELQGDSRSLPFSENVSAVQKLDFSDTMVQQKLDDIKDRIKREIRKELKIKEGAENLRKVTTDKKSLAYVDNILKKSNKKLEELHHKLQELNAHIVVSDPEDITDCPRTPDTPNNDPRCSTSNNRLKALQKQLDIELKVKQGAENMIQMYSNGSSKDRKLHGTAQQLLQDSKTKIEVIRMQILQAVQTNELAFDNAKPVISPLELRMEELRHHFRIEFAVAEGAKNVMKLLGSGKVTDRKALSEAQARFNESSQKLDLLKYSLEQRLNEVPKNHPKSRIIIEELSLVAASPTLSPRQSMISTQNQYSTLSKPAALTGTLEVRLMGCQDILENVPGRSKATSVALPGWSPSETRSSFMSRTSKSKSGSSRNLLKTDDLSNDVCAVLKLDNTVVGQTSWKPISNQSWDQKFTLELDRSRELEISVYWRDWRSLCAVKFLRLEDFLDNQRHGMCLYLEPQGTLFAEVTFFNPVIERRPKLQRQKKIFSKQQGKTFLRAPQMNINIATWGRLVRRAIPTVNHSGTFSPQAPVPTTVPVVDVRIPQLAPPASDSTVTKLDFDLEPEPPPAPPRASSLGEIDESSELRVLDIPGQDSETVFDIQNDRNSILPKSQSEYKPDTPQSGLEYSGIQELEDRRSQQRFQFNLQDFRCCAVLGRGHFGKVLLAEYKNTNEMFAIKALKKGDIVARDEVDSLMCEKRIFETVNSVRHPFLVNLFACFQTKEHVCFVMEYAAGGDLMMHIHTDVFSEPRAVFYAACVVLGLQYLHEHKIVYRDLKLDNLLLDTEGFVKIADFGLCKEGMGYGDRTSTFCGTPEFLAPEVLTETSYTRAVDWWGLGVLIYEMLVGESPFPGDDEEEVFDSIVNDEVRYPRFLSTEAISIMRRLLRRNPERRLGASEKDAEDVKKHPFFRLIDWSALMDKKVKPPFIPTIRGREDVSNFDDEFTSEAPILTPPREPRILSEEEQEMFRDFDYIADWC
T4 sequence (P00519 whole entry): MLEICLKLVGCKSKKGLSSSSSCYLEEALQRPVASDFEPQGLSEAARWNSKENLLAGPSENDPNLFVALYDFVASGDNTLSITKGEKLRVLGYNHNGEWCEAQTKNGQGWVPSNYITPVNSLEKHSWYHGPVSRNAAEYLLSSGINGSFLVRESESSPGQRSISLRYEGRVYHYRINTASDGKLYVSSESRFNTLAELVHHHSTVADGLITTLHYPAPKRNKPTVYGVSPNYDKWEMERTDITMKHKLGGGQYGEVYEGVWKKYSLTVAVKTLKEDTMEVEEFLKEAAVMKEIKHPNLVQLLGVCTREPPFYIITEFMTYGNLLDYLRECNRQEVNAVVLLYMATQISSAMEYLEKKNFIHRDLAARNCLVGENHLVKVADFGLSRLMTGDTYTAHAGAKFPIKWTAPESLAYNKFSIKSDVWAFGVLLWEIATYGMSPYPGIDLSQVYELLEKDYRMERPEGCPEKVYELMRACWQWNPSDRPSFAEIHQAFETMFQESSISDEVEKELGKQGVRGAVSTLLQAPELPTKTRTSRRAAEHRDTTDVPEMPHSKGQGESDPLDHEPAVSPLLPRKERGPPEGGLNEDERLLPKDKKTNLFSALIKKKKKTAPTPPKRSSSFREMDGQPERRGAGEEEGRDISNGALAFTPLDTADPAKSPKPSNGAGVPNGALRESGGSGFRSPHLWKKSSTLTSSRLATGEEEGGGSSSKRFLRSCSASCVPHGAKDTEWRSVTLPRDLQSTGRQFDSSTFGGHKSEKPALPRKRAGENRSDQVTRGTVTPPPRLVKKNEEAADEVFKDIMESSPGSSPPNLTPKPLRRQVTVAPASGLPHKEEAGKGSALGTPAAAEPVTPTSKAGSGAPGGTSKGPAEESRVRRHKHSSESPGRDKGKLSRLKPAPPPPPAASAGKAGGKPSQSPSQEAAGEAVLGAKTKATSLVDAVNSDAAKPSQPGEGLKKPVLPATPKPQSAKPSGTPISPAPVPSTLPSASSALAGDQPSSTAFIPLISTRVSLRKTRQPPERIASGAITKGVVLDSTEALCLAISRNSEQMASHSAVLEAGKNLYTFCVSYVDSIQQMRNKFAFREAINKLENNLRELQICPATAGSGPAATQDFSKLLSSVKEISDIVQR

Compound | remaining activity at 1 µM (IKKb) | remaining activity at 1 µM (ASK1) | remaining activity at 1 µM (PRK2) | remaining activity at 1 µM (ABL) | remaining activity at 1 µM (TLK1) | residual activity (IKKb; 1 μM) | residual activity (ASK1; 1 μM) | residual activity (PRK2; 1 μM) | residual activity (ABL; 1 μM) | residual activity (TLK1; 1 μM)
O=C1Cc2c([nH]c3ccc(Br)cc23)-c2ccccc2N1 [Kenpaullone] | 103% | 68% | 57% | 40% | 95% |  |  |  |  | 
O=C1Nc2ccc(I)cc2/C1=C/c1cc(Br)c(O)c(Br)c1 [GW5074] | 73% | 56% | 68% | 58% | 86% |  |  |  |  | 
Nc1ncc(C(=O)NC2CN(C(=O)C3CC3)C2)c2ccc(-c3cccc(F)c3)nc12 [GNE-495] |  |  |  |  |  | 88% | 84% | 85% | 68% | 77%
Oc1ncnc2c1c(-c1ccccc1)cn2-c1ccccc1 [F1386-0303, 5,7-diphenyl-7H-pyrrolo[2,3-d]pyrimidin-4-ol] | 102% | 93% | 111% | 94% | 103% |  |  |  |  | 
COCCOc1ccc(-c2cn(-c3ccccc3)c3nc[nH]c(=O)c23)cc1 [DMX-5804, 5-[4-(2-methoxy-ethoxy)-phenyl]-7-phenyl-3,7-dihydro-pyrrolo[2,3-d]pyrimidin-4-one] | 107% | 108% | 90% | 79% | 111% |  |  |  |  | 
